Test results reported in ChEMBL document CHEMBL4651402, “Screening of ~5500 FDA-approved drugs and clinical candidates for anti-SARS-CoV-2 activity” (2021).
Square brackets hold non-standard residues; d marks the D form. Peptide text beside a SMILES is read from it. pGlu = O=C1CC[C@@H](C(=O)O)N1; Thz = O=C(O)[C@@H]1CSCN1

Tested on: SARS-CoV-2
Assay: microbe, parasite or virus in culture
Settings: Severe acute respiratory syndrome coronavirus 2, Vero C1008, 48 h

| SMILES | IC50 [µM] | IC50 (read-out: pIC50 (converted)) [µM] |
| --- | --- | --- |
| COc1cccc(C2(CCCN(C)C)C(=O)NC(=O)CC2(C)C)c1 (stereo not given) | > 20 | > 20 |
| CN(C)C[C@@H]1CCn2cc(c3ccccc32)C2=C(C(=O)NC2=O)c2cn(c3ccccc23)CCO1 [RUBOXISTAURIN] | > 20 | > 20 |
| CC(=O)O[C@H]1CC[C@@]2(C)[C@H](CC[C@@H]3[C@@H]2CC[C@]2(C)C(=O)CC[C@@H]32)C1 | > 20 | > 20 |
| CC(=O)c1c(C)c2cnc(Nc3ccc(N4CCNCC4)cn3)nc2n(C2CCCC2)c1=O [PALBOCICLIB] | > 20 | > 20 |
| CCCC(C)(COC(N)=O)COC(N)=O [MEPROBAMATE] | > 20 | > 20 |
| CCOC(=O)C1=CCCC[C@@H]1S(=O)(=O)Nc1ccc(F)cc1Cl | > 20 | > 20 |
| Nc1cc2[nH]cnc2c(=O)[nH]1 [DEZAGUANINE] | > 20 | > 20 |
| COc1ccc(S(=O)(=O)N2c3ccc(Cl)cc3[C@](O)(c3ccccc3Cl)[C@@H]2C(=O)N2CCC[C@H]2C(N)=O)cc1OC [RELCOVAPTAN] | > 20 | > 20 |
| CN1CCC2=C[C@H](O)[C@H]3OC(=O)c4cc5c(cc4[C@H]3[C@@H]21)OCO5 | > 20 | > 20 |
| CCN(CC)CCOc1ccc2c(c1)C(=O)c1cc(OCCN(CC)CC)ccc1-2 [TILORONE] | > 20 | > 20 |
| CC12C=CC(=O)C=C1[C@@H](F)CC1C2C(O)CC2(C)C1CCC2(O)C(=O)CO (stereo not given in full) | > 20 | > 20 |
| CC(C)(O)C(=O)Nc1ccc([N+](=O)[O-])c(C(F)(F)F)c1 [HYDROXYFLUTAMIDE] | > 20 | > 20 |
| CC1(C)SC2C(/N=C/N3CCCCCC3)C(=O)N2C1C(=O)O (stereo not given) | > 20 | > 20 |
| NCC1(CC(=O)O)CCCCC1 [GABAPENTIN] | > 20 | > 20 |
| COc1c(O)cc2c(c1O)C1OC(CO)C(O)C(O)C1OC2=O (stereo not given) | > 20 | > 20 |
| CC1(C)NC(=O)N(c2ccc([N+](=O)[O-])c(C(F)(F)F)c2)C1=O [NILUTAMIDE] | > 20 | > 20 |
| CN(C)CCOC(C)(c1ccccc1)c1ccccn1 (stereo not given) [DOXYLAMINE] | > 20 | > 20 |
| Cc1cc2c(s1)Nc1ccccc1N=C2N1CCN(C)CC1 [OLANZAPINE] | > 20 | > 20 |
| CC=C(C)C(=O)O[C@@H]1c2c(ccc3ccc(=O)oc23)OC(C)(C)[C@@H]1OC(C)=O | > 20 | > 20 |
| O=C(O)C=Cc1ccc(O)c(O)c1 | > 20 | > 20 |
| CCn1c(=Cc2cccc[n+]2CC)sc(=C2Sc3ccccc3N2C)c1=O | > 20 | > 20 |
| CN1C(C(=O)Nc2ccccn2)=C(O)c2sccc2S1(=O)=O [TENOXICAM] | > 20 | > 20 |
| Cn1c(=O)c2c(ncn2CCO)n(C)c1=O [ETOFYLLINE] | > 20 | > 20 |
| [N-]=[N+]=N[C@]1(CO)O[C@@H](n2ccc(N)nc2=O)[C@@H](O)[C@@H]1O | > 20 | > 20 |
| CC(=O)Oc1ccccc1C(=O)Nc1ncc([N+](=O)[O-])s1 [NITAZOXANIDE] | > 20 | > 20 |

| SMILES | IC50 [µM] | IC50 (read-out: pIC50 (converted)) [µM] |
| --- | --- | --- |
| COc1ccc(F)cc1[C@H](C)NC(=O)Cc1ccc(S(=O)(=O)Nc2ncc(CC(C)C)cn2)cc1 [GLIFLUMIDE] | > 20 | > 20 |
| CNC[C@H](O)c1cccc(O)c1 [PHENYLEPHRINE] | > 20 | > 20 |
| COc1cccc(-c2cc(=O)c3ccccc3o2)c1N | > 20 | > 20 |
| Nc1nc(=S)c2ncn([C@@H]3O[C@H](CO)[C@@H](O)[C@H]3O)c2[nH]1 [THIOGUANOSINE] | > 20 | > 20 |
| NC(C(=O)O)C(O)c1ccc(O)c(O)c1 (stereo not given) | > 20 | > 20 |
| Cn1cnc2c(F)c(Nc3ccc(Br)cc3F)c(C(=O)NOCCO)cc21 [BINIMETINIB] | > 20 | > 20 |
| O=C(c1ccc(F)cc1)C1CCN(CCn2c(=S)[nH]c3ccccc3c2=O)CC1 [ALTANSERIN] | > 20 | > 20 |
| CCN(CC)CCOC(c1ccccc1)c1ccccc1 | > 20 | > 20 |
| COc1ccc2c(c1OC)CN1CCc3cc4c(cc3C1C2)OCO4 (stereo not given) [TETRAHYDROBERBERINE] | > 20 | > 20 |
| CC1=C2[C@H]3OC(=O)[C@@H](C)[C@@H]3CC[C@@]2(C)C=CC1=O [SANTONIN] | > 20 | > 20 |
| CCC(=O)O[C@]1(C(=O)SCF)[C@H](C)C[C@H]2[C@@H]3C[C@H](F)C4=CC(=O)C=C[C@]4(C)[C@@]3(F)[C@@H](O)C[C@@]21C [FLUTICASONE PROPIONATE] | > 20 | > 20 |
| C=CCC(N)c1ccccc1-c1noc2ccccc12 (stereo not given) | > 20 | > 20 |
| C=CCN1CCCC1CNC(=O)c1cc2nn[nH]c2cc1OC (stereo not given) [ALIZAPRIDE] | > 20 | > 20 |
| O=c1cc(-c2ccccc2)oc2c(O)c(O)ccc12 [7,8-DIHYDROXYFLAVONE] | > 20 | > 20 |
| CN(C)CCOC(=O)COc1ccc(Cl)cc1 [MECLOFENOXATE] | > 20 | > 20 |
| CCCS(=O)(=O)N[C@H]1C[C@@H](N(C)c2ncnc3[nH]ccc23)C1 [ABROCITINIB] | > 20 | > 20 |
| COc1cc(OC)c2c(=O)[nH]c(-c3cc(C)c(OCCO)c(C)c3)nc2c1 [APABETALONE] | > 20 | > 20 |
| CN(C)Cc1c[nH]c2ccccc12 [GRAMINE] | > 20 | > 20 |
| O=c1c(-c2ccc(O)cc2)coc2c(C3O[C@H](CO)[C@@H](O)[C@H](O)[C@H]3O)c(O)ccc12 (stereo not given in full) | > 20 | > 20 |
| COc1c(N2CCC/C(=C(\F)CN)C2)c(F)cc2c(=O)c(C(=O)O)cn(C3CC3)c12 [ACORAFLOXACIN] | > 20 | > 20 |
| NC1=NC(=O)N(C2CC(O)C(CO)O2)CN1 (stereo not given) | > 20 | > 20 |
| OCCN1CCN(CCCN2c3ccccc3C=Cc3ccccc32)CC1 [OPIPRAMOL] | > 20 | > 20 |
| O=C1CC[C@@H](C(=O)N2CSC[C@H]2C(=O)O)N1 [PIDOTIMOD] ([pGlu]-[Thz]-OH) | > 20 | > 20 |
| CC1(C)CC23C(=O)CCC(O)C2(C)CCC13 (stereo not given) [3-NOR-3-OXOPANASINSAN-6-OL] | > 20 | > 20 |
| c1cc2c(cc1[C@H]1OC[C@H]3[C@@H]1CO[C@@H]3c1ccc3c(c1)OCO3)OCO2 [SESAMIN] | > 20 | > 20 |

| SMILES | IC50 [µM] | IC50 (read-out: pIC50 (converted)) [µM] |
| --- | --- | --- |
| C1CCc2nnnn2CC1 [PENTYLENETETRAZOL] | > 20 | > 20 |
| COc1ccc(CN2CCNCC2)c(OC)c1OC [TRIMETAZIDINE] | > 20 | > 20 |
| Oc1ccc(C2CNCCc3c2cc(O)c(O)c3Cl)cc1 (stereo not given) [FENOLDOPAM] | > 20 | > 20 |
| CNC(=O)c1cc(Oc2ccc(NC(=O)Nc3ccc(Cl)c(C(F)(F)F)c3)cc2)ccn1 [SORAFENIB] | > 20 | > 20 |
| CCCC(=O)c1ccc2c(c1)N(CCCN1CCN(C)CC1)c1ccccc1S2 [BUTAPERAZINE] | > 20 | > 20 |
| NC(=O)N/N=C/c1ccc([N+](=O)[O-])o1 [NITROFURAZONE] | > 20 | > 20 |
| N=C(N)NC(=N)N1CCOCC1 [MOROXYDINE] | > 20 | > 20 |
| O=c1[nH]c(=O)n(Cl)c(=O)n1Cl [TROCLOSENE] | > 20 | > 20 |
| CC(=O)[C@H]1CC[C@H]2[C@@H]3CC=C4C[C@@H](O)CC[C@]4(C)[C@H]3CC[C@]12C [PREGNENOLONE] | > 20 | > 20 |
| Nc1[nH]cnc2ncnc1-2 [ADENINE] | > 20 | > 20 |
| N#CN=C(NCCCCCCOc1ccc(Cl)cc1)Nc1ccncc1 [CHS-828] | > 20 | > 20 |
| CC(C)C[C@H](NC(=O)CNC(=O)[C@H](Cc1ccc(O)cc1)NC(=O)[C@H](CO)NC(=O)[C@H](Cc1c[nH]c2ccccc12)NC(=O)[C@H](Cc1cnc[nH]1)NC(=O)[C@@H]1CCC(=O)N1)C(=O)N[C@@H](CCCNC(=N)N)C(=O)N1CCC[C@H]1C(=O)NCC(N)=O [GONADORELIN] | > 20 | > 20 |
| Cc1c2c(cn1C)NC(=O)CN=C2c1ccccc1 [PREMAZEPAM] | > 20 | > 20 |
| O=C(O)c1cc(NC(=O)[C@H](Cc2ccccc2F)NC(=O)c2cc3[nH]cnc3cc2C(=O)NCC2CCCCCC2)cc(C(=O)O)c1 | > 20 | > 20 |
| O=C(O)/C=C\C(=O)O [MALEIC ACID] | > 20 | > 20 |
| C=C1[C@@H](O)C23C[C@@H]1[C@@H](O)C[C@H]2[C@@]12[C@@H]4[C@H]3C[C@@H]1[C@@](C)(CC[C@@H]2O)CN4CC | > 20 | > 20 |
| CCCC(=O)O[C@H]1CN2CC[C@H](O)[C@@H]2[C@@H](O)[C@@H]1O [CELGOSIVIR] | > 20 | > 20 |
| CCOc1ccccc1O[C@H](c1ccccc1)[C@H]1CNCCO1 | > 20 | > 20 |
| CNC(=O)c1cc(Oc2ccc(NC(=O)Nc3cc(C(C)(C)C)nn3-c3ccc4ncccc4c3)c(F)c2)ccn1 [REBASTINIB] | > 20 | > 20 |
| CCCN(CC)C(CC)C(=O)Nc1c(C)cccc1C (stereo not given) [ETIDOCAINE] | > 20 | > 20 |
| CN(C)CCN(Cc1ccc(Cl)cc1)c1ccccn1 [CHLOROPYRAMINE] | > 20 | > 20 |
| COc1ccc(-c2cc(=O)c3c(O)cc(O)cc3o2)cc1O [DIOSMETIN] | > 20 | > 20 |
| CC1NCCc2cc(O)c(O)cc21 (stereo not given) | > 20 | > 20 |
| CC(CN(C)C)CN1c2ccccc2CCc2ccccc21 (stereo not given) [TRIMIPRAMINE] | > 20 | > 20 |
| CC(C)(C)C(=O)Oc1ccc2c(c1)O[C@@H](c1ccc(OCCN3CCCCC3)cc1)C1=C2COc2cc(OC(=O)C(C)(C)C)ccc21 | > 20 | > 20 |
